Results as given in the NIST ThermoML archive (doi:10.1016/j.tca.2013.06.040).

Assays:
[1] = DTA
[2] = Molar enthalpy of transition or fusion; details: DSC
[3] = molar heat capacity at constant pressure; details: 101.33 kPa, Small sample (50 mg) DSC

O=[N+]([O-])[O-].[Li+] [lithium nitrate]
Crystal
Details	Molar enthalpy of transition or fusion [kcal/mol]	Triple point temperature [K]
[1]	–	525
[2]	5.86	–

[3]
Details	molar heat capacity at constant pressure [J/K/mol]
310.7 K, Crystal	63.7
315.7 K, Crystal	56.8
320.6 K, Crystal	117
325.6 K, Crystal	114
330.6 K, Crystal	80.3
335.6 K, Crystal	72.2
340.6 K, Crystal	63.4
345.6 K, Crystal	78.2
350.6 K, Crystal	88.7
355.6 K, Crystal	83.5
360.6 K, Crystal	80.8
365.6 K, Crystal	81.5
370.6 K, Crystal	75.6
375.6 K, Crystal	79.1
380.6 K, Crystal	77.3
385.6 K, Crystal	80.7
390.6 K, Crystal	81.1
395.6 K, Crystal	83.9
400.6 K, Crystal	87.5
405.5 K, Crystal	86.4
410.5 K, Crystal	81.9
415.5 K, Crystal	90.3
420.5 K, Crystal	87.1
425.5 K, Crystal	86.2
430.5 K, Crystal	91.5
435.6 K, Crystal	94.4
440.6 K, Crystal	95.6
445.5 K, Crystal	88.4
450.5 K, Crystal	93.6
455.4 K, Crystal	90.4
460.3 K, Crystal	93.1
465.4 K, Crystal	96.3
470.5 K, Crystal	97.4
475.5 K, Crystal	91.5
480.6 K, Crystal	94.5
485.5 K, Crystal	95.6
490.5 K, Crystal	99.4
495.5 K, Crystal	102
500.5 K, Crystal	98.8
505.5 K, Crystal	103
510.5 K, Crystal	110
515.5 K, Crystal	125
520.5 K, Crystal	127
535.5 K, Liquid	114
540.5 K, Liquid	122
545.5 K, Liquid	122
550.5 K, Liquid	125
555.5 K, Liquid	117
560.5 K, Liquid	121
570.5 K, Liquid	122
575.5 K, Liquid	123
580.5 K, Liquid	116
585.5 K, Liquid	121
590.5 K, Liquid	119
595.5 K, Liquid	122
600.5 K, Liquid	119
610.5 K, Liquid	113
615.5 K, Liquid	120
620.5 K, Liquid	110

O=[N+]([O-])[O-].O=[N+]([O-])[O-].[Li+].[Rb+] [lithium rubidium nitrate]
Crystal
Details	Molar enthalpy of transition or fusion [kcal/mol]	Triple point temperature [K]
[1]	–	460
[2]	5.31	–

[3]
Details	molar heat capacity at constant pressure [J/K/mol]
315.6 K, Crystal	150.8
320.6 K, Crystal	166.6
325.6 K, Crystal	171.8
330.6 K, Crystal	190.8
335.6 K, Crystal	179.2
340.6 K, Crystal	184.8
345.6 K, Crystal	184
350.6 K, Crystal	200
355.6 K, Crystal	204
360.6 K, Crystal	222
365.6 K, Crystal	222
370.6 K, Crystal	190.6
375.6 K, Crystal	206
380.6 K, Crystal	189
385.6 K, Crystal	196.4
390.5 K, Crystal	206
395.5 K, Crystal	224
400.5 K, Crystal	191.4
405.5 K, Crystal	210
410.5 K, Crystal	195.4
420.5 K, Crystal	206
425.5 K, Crystal	224
435.5 K, Crystal	232
445.5 K, Crystal	262
460.5 K, Liquid	374
470.5 K, Liquid	346
475.5 K, Liquid	342
480.5 K, Liquid	364
485.5 K, Liquid	382
490.5 K, Liquid	384

O=[N+]([O-])[O-].[Rb+] [rubidium nitrate]
Details	Molar enthalpy of transition or fusion, Crystal 1 [kcal/mol]	Molar enthalpy of transition or fusion, Crystal 2 [kcal/mol]	Molar enthalpy of transition or fusion, Crystal 3 [kcal/mol]	Molar enthalpy of transition or fusion, Crystal 4 [kcal/mol]	Triple point temperature, Crystal 1 [K]	Triple point temperature, Crystal 2 [K]	Triple point temperature, Crystal 3 [K]	Triple point temperature, Crystal 4 [K]
[1]	–	–	–	–	583	555	500	437
[2]	1.12	0.299	0.554	0.889	–	–	–	–

[3]
Details	molar heat capacity at constant pressure [J/K/mol]
325.6 K, Crystal 4	99
330.6 K, Crystal 4	99.5
335.6 K, Crystal 4	101
340.6 K, Crystal 4	102
345.6 K, Crystal 4	101
350.6 K, Crystal 4	101
355.6 K, Crystal 4	102
360.6 K, Crystal 4	100
365.6 K, Crystal 4	104
370.6 K, Crystal 4	104
375.6 K, Crystal 4	106
380.6 K, Crystal 4	107
385.6 K, Crystal 4	109
390.6 K, Crystal 4	109
395.6 K, Crystal 4	110
400.6 K, Crystal 4	111
405.6 K, Crystal 4	112
410.6 K, Crystal 4	113
415.6 K, Crystal 4	113
420.6 K, Crystal 4	114
425.5 K, Crystal 4	123
430.5 K, Crystal 4	118
435.5 K, Crystal 4	123
440.5 K, Crystal 3	833
445.5 K, Crystal 3	134
450.5 K, Crystal 3	134
455.5 K, Crystal 3	135
460.5 K, Crystal 3	136
465.5 K, Crystal 3	136
470.5 K, Crystal 3	138
475.5 K, Crystal 3	138
480.5 K, Crystal 3	138
485.5 K, Crystal 3	138
490.5 K, Crystal 3	139
495.5 K, Crystal 3	139
500.5 K, Crystal 2	303
505.5 K, Crystal 2	368
510.5 K, Crystal 2	175
515.5 K, Crystal 2	132
520.5 K, Crystal 2	134
525.5 K, Crystal 2	135
530.5 K, Crystal 2	136
535.5 K, Crystal 2	136
540.5 K, Crystal 2	136
545.5 K, Crystal 2	137
550.5 K, Crystal 2	161
555.5 K, Crystal 1	151
560.5 K, Crystal 1	399
565.5 K, Crystal 1	112
570.5 K, Crystal 1	113
575.5 K, Crystal 1	111
580.5 K, Crystal 1	115
585.5 K, Liquid	744
590.5 K, Liquid	249
595.5 K, Liquid	157
600.5 K, Liquid	140
605.5 K, Liquid	138
610.5 K, Liquid	138
615.5 K, Liquid	138
620.5 K, Liquid	137
